According to patent US11464770B2, “Anticancer pharmaceutical composition” (NATIONAL CANCER CENTER, priority 2016, dated 2022):
“Also recorded” adds a separate entry of the source. Like-named read-outs stand apart in the source and are kept apart here.

Tests used:
[1] = tested on: prostate cancer cell lines (e.g. DU145/TXR); test: Cell based assay, cell viability (CellTiter-Glo), prostate cancer cell lines; conditions: Homo sapiens, 72 hours treatment, final concentration 0 to 2 μM
How it was run: (§1)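 Viability measured by ATP luminescence following 72 h treatment over a 0–2 μM final concentration range.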

[2] = tested on: neuroblastoma cell lines; test: Cell based assay, cell viability (CellTiter-Glo), neuroblastoma cell lines; conditions: Homo sapiens; SH-SY5Y cell line
How it was run: as §1

[3] = tested on: RT4: human urinary bladder transitional cell papilloma; test: Cell based assay, cytotoxicity in RT4 papilloma cells (selectivity); conditions: Homo sapiens, RT-4; RT4 cells
[4] = IV and IP single toxicity test in mice; format: in vivo; conditions: for Percentage (dead subjects), single toxicity evaluation: Mouse
[5] = tested on: zebrafish; test: Cardiotoxicity experiment using zebrafish (heart rate, lethality); format: in vivo; conditions: 5 uM, n = 10
[6] = Cell based assay, cytotoxicity in RT4 papilloma cells (selectivity); set-up: species or system human; conditions: human; RT4 cells (benign), 72 hours
[7] = tested on: MBT-2: Mouse bladder transitional cell carcinoma; test: Cell based assay, cytotoxicity in MBT-2 cells; conditions: 72 hours
Procedure: (§2) Commercially available bladder cancer, prostate cancer, lung cancer, breast cancer, blood cancer, pancreatic cancer, colorectal cancer, brain cancer, neuroblastoma, melanoma, liver cancer, cervical carcinoma, ovarian cancer, renal cancer, and papilloma cell lines were each treated with trypsin-EDTA and cultured, followed by being seeded in each well of a 96 well plate. After 24 hours of treatment at constant temperature, the respective cells were treated with the candidate compound so that a final concentration became 0 to 2 μM. The treated cells were additionally cultured for 72 hours, and cell viability was measured by using an ATP detection method (CellTiter-Glo® Luminescent Cell Viability Assay, Promega).

[8] = tested on: KU-19-19: Bladder carcinoma; test: Cell based assay, cytotoxicity in KU19-19 cells; conditions: Homo sapiens, 72 hours
Procedure: as §2

[9] = tested on: UM-UC-3: human urinary bladder transitional cell carcinoma; test: Cell based assay, cytotoxicity in UM-UC-3 cells; conditions: UMUC3, 72 hours
Procedure: as §2

[10] = CWR22 cells, read-out: IC50, prostate cancer cell line CWR22
[11] = DU-145, DU145/TXR cells, read-out: IC50, prostate cancer cell line DU145/TXR
[12] = DU-145, DU145 cells, read-out: IC50, prostate cancer cell line DU145
[13] = LNcap cells, read-out: IC50, prostate cancer cell line LNcap
[14] = PC-3 cells, read-out: IC50, prostate cancer cell line PC-3
[15] = IV and IP single toxicity tests at 40 mpk, 40 mg/kg

Compound | IC50 [1, 10] [nM] | IC50 [1, 11] [nM] | IC50 [1, 12] [nM] | IC50 [1, 13] [nM] | IC50 [1, 14] [nM] | IC50 [2] [nM] | IC50 [3] [µM] | Dead subjects [4, 15] | General symptoms (feed intake, drinking water intake) [4, 15] | Weight changes [4, 15] | Percentage (dead subjects), single toxicity evaluation ([4]; Female, IP 40 mg/kg) | Percentage (dead subjects), single toxicity evaluation ([4]; Female, IV 40 mg/kg) | Percentage (dead subjects), single toxicity evaluation ([4]; Male, IP 40 mg/kg) | Percentage (dead subjects), single toxicity evaluation ([4]; Male, IV 40 mg/kg) | Changes (%) in heart rate ([5]; mean) [%] | Lethality [5] | IC50 at 72 h [6] [µM] | IC50 [7] [µM] | IC50 [8] [µM] | IC50 [9] [µM]
CC(=O)c1c([S+]([O-])Cc2ccccc2)nc2c(Br)ccc(Cl)c2c1O (stereo not drawn) [Compound 4] | 1670 | 1190 | 1410 | > 2000 | 1520 | > 2000 | > 10 | No dead subjects were observed | Feeding and drinking water intakes were good, and no other abnormal symptoms were observed | no significant weight changes; also recorded: a weight gain was observed, but weight gain was slightly reduced in some subjects | 0 (0/2) | 0 (0/2) | 0 (0/2) | 0 (0/2) | 88.5 | 1/10 | – | – | – | –
CC(=O)c1c([S+]([O-])CN2C(=O)c3ccccc3C2=O)[nH]c2c(Cl)ccc(Cl)c2c1=O (stereo not drawn) [Compound 90, 2-(((3-acetyl-5,8-dichloro-4-oxo-1,4-dihydroquinolin-2-yl)sulfinyl)methyl)isoindoline-1,3-dione] | > 2000 | > 2000 | > 2000 | > 2000 | > 2000 | > 2000 | > 10 | – | – | – | – | – | – | – | – | – | – | – | – | –
CSc1[nH]c2ccc(F)cc2c(=O)c1C(C)=O [Compound 8, 1-(6-fluoro-4-hydroxy-2-(methylthio)quinolin-3-yl)ethan-1-one] | > 2000 | > 2000 | > 2000 | > 2000 | > 2000 | > 2000 | > 10 | – | – | – | – | – | – | – | – | – | – | – | – | –
CC(=O)c1c([S+]([O-])Cc2ccc(Cl)nc2)[nH]c2c(Br)ccc(Cl)c2c1=O (stereo not drawn) [Compound 104, 3-acetyl-8-bromo-5-chloro-2-(((6-chloropyridin-3-yl)methyl)sulfinyl)quinolin-4(1H)-one] | 1550 | 1230 | 1640 | > 2000 | > 2000 | 600 | > 10 | – | – | – | – | – | – | – | – | – | – | – | – | –
CC(=O)c1c(SCc2ccc(F)c(Cl)c2)[nH]c2c(Br)ccc(Cl)c2c1=O [Compound 30, 3-acetyl-8-bromo-5-chloro-2-((3-chloro-4-fluorobenzyl)thio)quinolin-4(1H)-one] | > 2000 | > 2000 | > 2000 | > 2000 | > 2000 | > 2000 | > 10 | – | – | – | – | – | – | – | – | – | – | – | – | –
CC(=O)c1c([S+]([O-])Cc2cc(C)on2)[nH]c2c(F)ccc(F)c2c1=O (stereo not drawn) [Compound 82, 3-acetyl-5,8-difluoro-2-(((5-methylisoxazol-3-yl)methyl)sulfinyl)quinolin-4(1H)-one] | > 2000 | > 2000 | > 2000 | > 2000 | – | 1550 | > 10 | – | – | – | – | – | – | – | – | – | – | – | – | –
CSc1c(C(C)=O)c(=O)c2cc(F)ccc2n1C [Compound 7, 3-acetyl-6-fluoro-1-methyl-2-(methylthio)quinolin-4(1H)-one] | > 2000 | > 2000 | > 2000 | > 2000 | > 2000 | > 2000 | > 10 | – | – | – | – | – | – | – | – | – | – | – | – | –
CC(=O)c1c([S+](C)[O-])n(Cc2ccc(F)c(Cl)c2)c2c(Br)ccc(Cl)c2c1=O (stereo not drawn) [Compound 22, 3-acetyl-8-bromo-5-chloro-1-(3-chloro-4-fluorobenzyl)-2-(methylsulfinyl)quinolin-4(1H)-one] | > 2000 | > 2000 | > 2000 | > 2000 | > 2000 | > 2000 | > 10 | – | – | – | – | – | – | – | – | – | – | – | – | –
CC(=O)c1c(SCc2ccccc2)[nH]c2c(Br)ccc(Cl)c2c1=O [Compound 3, 3-acetyl-2-(benzylthio)-8-bromo-5-chloroquinolin-4(1H)-one] | > 2000 | > 2000 | > 2000 | > 2000 | > 2000 | > 2000 | > 10 | – | – | – | – | – | – | – | – | – | – | – | – | –
CC(=O)c1c([S+]([O-])Cc2ccc(NS(C)(=O)=O)cc2)[nH]c2c(Br)ccc(Cl)c2c1=O (stereo not drawn) [Compound 103, N-(4-(((3-acetyl-8-bromo-5-chloro-4-oxo-1,4-dihydroquinolin-2-yl)sulfinyl)methyl)phenyl)methane-sulfonamide] | > 2000 | > 2000 | > 2000 | > 2000 | – | 1010 | > 10 | – | – | – | – | – | – | – | – | – | – | – | – | –
Cc1cc(C[S+]([O-])c2[nH]c3c(Cl)ccc(Cl)c3c(=O)c2C(=O)C2CC2)no1 (stereo not drawn) [Compound 97, 5,8-dichloro-3-(cyclopropanecarbonyl)-2-(((5-methylisoxazol-3-yl)methyl)sulfinyl)quinolin-4(1H)-one] | 1480 | 1500 | 1280 | > 2000 | 1700 | 600 | > 10 | – | – | – | – | – | – | – | – | – | – | – | – | –
Cc1cc(C[S+]([O-])c2[nH]c3c(Br)ccc(Cl)c3c(=O)c2C(=O)C2CC2)no1 (stereo not drawn) [Compound 96, 8-bromo-5-chloro-3-(cyclopropanecarbonyl)-2-(((5-methylisoxazol-3-yl)methyl)sulfinyl)quinolin-4(1H)-one] | 1900 | 1770 | 1740 | > 2000 | > 2000 | 770 | > 10 | – | – | – | – | – | – | – | – | – | – | – | – | –
CC(=O)c1c(SCC#N)[nH]c2c(Br)ccc(Cl)c2c1=O [Compound 66, 2-((3-acetyl-8-bromo-5-chloro-4-oxo-1,4-dihydroquinolin-2-yl)thio)acetonitrile] | > 2000 | > 2000 | > 2000 | > 2000 | > 2000 | > 2000 | > 10 | – | – | – | – | – | – | – | – | – | – | – | – | –
COC(=O)c1ccc(C[S+]([O-])c2[nH]c3c(Cl)ccc(Cl)c3c(=O)c2C(C)=O)cc1 (stereo not drawn) [Compound 91, methyl 4-(((3-acetyl-5,8-dichloro-4-oxo-1,4-dihydroquinolin-2-yl)sulfinyl)methyl)benzoate] | > 2000 | 1980 | > 2000 | > 2000 | – | 1220 | > 10 | – | – | – | – | – | – | – | – | – | – | – | – | –
CSc1c(C(C)=O)c(=O)c2c(Cl)ccc(Br)c2n1S(=O)(=O)c1ccc(Cl)cc1 [Compound 37, 3-acetyl-8-bromo-5-chloro-1-((4-chlorophenyl)sulfonyl)-2-(methylthio)quinolin-4(1H)-one] | > 2000 | > 2000 | > 2000 | > 2000 | > 2000 | > 2000 | > 10 | – | – | – | – | – | – | – | – | – | – | – | – | –
CC(=O)c1c([S+]([O-])Cc2ccc(C(F)(F)F)nc2C)[nH]c2c(Br)ccc(Cl)c2c1=O (stereo not drawn) [Compound 102, 3-acetyl-8-bromo-5-chloro-2-(((2-methyl-6-(trifluoromethyl)pyridin-3-yl)methyl)sulfinyl)quinolin-4(1H)-one] | 1490 | 1120 | 1650 | > 2000 | 1830 | 520 | > 10 | – | – | – | – | – | – | – | – | – | – | – | – | –
CC(=O)c1c([S+]([O-])Cc2ccc(C#N)s2)[nH]c2c(Br)ccc(Cl)c2c1=O (stereo not drawn) [Compound 98, 5-(((3-acetyl-8-bromo-5-chloro-4-oxo-1,4-dihydroquinolin-2-yl)sulfinyl)methyl)thiophene-2-carbonitrile] | 1550 | 1910 | 1920 | > 2000 | > 2000 | 830 | > 10 | – | – | – | – | – | – | – | – | – | – | – | – | –
CSc1[nH]c2c(Br)ccc(Cl)c2c(=O)c1C(C)=O [Compound 2, 3-acetyl-8-bromo-5-chloro-2-(methylthio)quinolin-4(1H)-one] | > 2000 | > 2000 | > 2000 | > 2000 | > 2000 | > 2000 | > 10 | – | – | – | – | – | – | – | – | – | – | – | – | –
CC(=O)c1c([S+]([O-])Cc2cccc(I)c2)[nH]c2c(Br)ccc(Cl)c2c1=O (stereo not drawn) [Compound 48, 3-acetyl-8-bromo-5-chloro-2-((3-iodobenzyl)sulfinyl)quinolin-4(1H)-one] | > 2000 | 1570 | > 2000 | > 2000 | – | > 2000 | > 10 | – | – | – | – | – | – | – | – | – | – | – | – | –
CC(=O)c1c([S+](C)[O-])[nH]c2c(Cl)ccc(Cl)c2c1=O (stereo not drawn) [Compound 6, 3-acetyl-5,8-dichloro-2-(methylsulfinyl)quinolin-4(1H)-one] | 1990 | 1540 | 1800 | > 2000 | 1680 | > 2000 | > 10 | – | – | – | – | – | – | – | – | – | – | – | – | –
CC(=O)c1c([S+]([O-])Cc2ccc(-n3cccn3)nc2)[nH]c2c(Br)ccc(Cl)c2c1=O (stereo not drawn) [Compound 99, 2-(((6-(1H-pyrazol-1-yl)pyridin-3-yl)methyl)sulfinyl)-3-acetyl-8-bromo-5-chloroquinolin-4(1H)-one] | 1240 | 1060 | 970 | > 2000 | 1510 | 450 | > 10 | – | – | – | – | – | – | – | – | – | > 10 | 0.47 | 1.12 | 0.77
